This is an account of results in patent publication US6391538B1, “Stabilization of implantable bioprosthetic tissue” (The Children's Hospital of Philadelphia, priority 2000, dated 2002).

One data set concerns A10 cells. Description: Relative biocompatibility of treated collagen surfaces, survival of A10 cells. In kind it is cell-based. The settings on record: A10 cells on denatured bovine type I collagen film treated with 0.2% (v/v) glutaraldehyde (24 hours, room temperature) or 0.1 molar TGA (24 hours, 37° C.), pH 7.4; about 24 hours of culturing. The procedure:
Denatured (100° C., 1 hour) bovine type I collagen was applied as a film to duplicate culture surfaces. One surface was treated by contacting it with a solution comprising 0.2% (v/v) glutaraldehyde at pH 7.4 for 24 hours at room temperature (i.e. about 20° C.). Another surface was treated by contacting it with a solution comprising 0.1 molar TGA at pH 7.4 for 24 hours at 37° C. Both surfaces were rinsed extensively using phosphate-buffered saline (pH 7.4) in order to remove non-reacted compounds. A10 cells (obtained from the American Type Culture Collection; Gaithersburg, Md.) were provided to both surfaces, and survival of the cells was monitored. A high proportion (estimated at 30% or more of cells) which were provided to the glutaraldehyde-treated collagen surface appeared to be dead following about 24 hours of culturing, with significant amounts of cell debris observed.

Another data set has as its system porcine aortic cusps. Description: Subdermal calcification study in rats, porcine aortic cusps. In kind it is in vivo. Here is the method: In a first method of cross-linking bioprosthetic tissue, four separate cross-linking solutions were prepared:
1) 0.1 molar TGA in 0.05 molar HEPES buffer at pH 7.4,
2) 0.1 molar TGA in 0.05 boric acid-borax buffer at pH 9.0,
3) 0.1 molar Denacol 521™ (Nagase Chemical Co., Japan) in 0.05 molar HEPES buffer at pH 7.4, and
4) 0.05 molar HEPES buffer (pH 7.4) containing 0.6% (v/v) glutaraldehyde.
Twenty fresh porcine aortic cusps were added to separate 100 milliliter aliquots of each of the four solutions (i.e. using a total of eighty cusps). The cusps and solutions were maintained with constant shaking at room temperature for up to ten days without changing the solution. At selected times, a small section was removed from each of the cusps in each of the cross-linking reactions and analyzed by differential scanning calorimetry to determine the thermal shrinkage temperature (Ts). Cross-linking reactions were considered complete when the value of Ts remained substantially constant over time. Cusps treated in this manner were maintained in the cross-linking solution for more than 20 days prior to use in subsequent experiments. […]
Subdermal calcification studies were performed in rats using tissues treated and stored as described above. Following treatment by either of the two methods described above, the tissues were rinsed thoroughly with excess sterile saline solution immediately prior to implantation. Tissues were implanted subdermally (1 tissue sample per rat, 10 rats per treatment method). Twenty-one days following implantation, the tissues were recovered and their calcium content was measured in samples taken from each tissue.

A short description of data set [1]: Thermal shrinkage temperature (Ts) by differential scanning calorimetry. In kind it is physicochemical, porcine. The conditions noted are these: cusp tissue, 0.1 molar TGA and 0.1 molar HEPES, solution replenished every 24 hours, seven days. The procedure:
(§1) Twenty fresh porcine aortic cusps were added to separate 100 milliliter aliquots of each of the four solutions (i.e. using a total of eighty cusps). The cusps and solutions were maintained with constant shaking at room temperature for up to ten days without changing the solution. At selected times, a small section was removed from each of the cusps in each of the cross-linking reactions and analyzed by differential scanning calorimetry to determine the thermal shrinkage temperature (Ts). Cross-linking reactions were considered complete when the value of Ts remained substantially constant over time. Cusps treated in this manner were maintained in the cross-linking solution for more than 20 days prior to use in subsequent experiments.
(§2) The tissues and solutions were maintained at room temperature with constant shaking for up to seven days, during which time the pH of each cross-linking reaction was monitored. For selected reactions, the reaction mixture solution was replaced every 24 hours with a freshly-prepared 100 milliliter aliquot of 0.1 molar TGA in 0.10 molar HEPES buffer at pH 7.4. At selected times, a small section was removed from each tissue in each of the stabilization reaction mixtures, and the section was analyzed by differential scanning calorimetry to determine the thermal shrinkage temperature (Ts). […]
(In general: DSC measures the heat that a sample takes up or gives off during a temperature scan.)

Data set [2] can be described thus: pH monitoring of cross-linking reactions. In kind it is physicochemical. The procedure:
as §1, §2

For data set [3], the system named is porcine aortic wall segments. Description: Subdermal calcification study in rats, porcine aortic wall. Format: in vivo. The conditions noted are these: Group III: TGA second method, then treated with and stored in formalin-containing solution, 21 days, average ± standard error. Here is the method:
(§3) In a second method of cross-linking bioprosthetic tissue, separate 100 milliliter aliquots of […] TGA in 0.10 molar HEPES buffer at pH 7.4 were prepared. The following were added to individual aliquots of this solution.
(§4) The tissues and solutions were maintained at room temperature with constant shaking for up to seven days, during which time the pH of each cross-linking reaction was monitored. For selected reactions, the reaction mixture solution was replaced every 24 hours with a freshly-prepared 100 milliliter aliquot of 0.1 molar TGA in 0.10 molar HEPES buffer at pH 7.4. At selected times, a small section was removed from each tissue in each of the stabilization reaction mixtures, and the section was analyzed by differential scanning calorimetry to determine the thermal shrinkage temperature (Ts). After seven days of reaction, one group of each of the tissues was transferred to 100 milliliters of 0.05 molar phosphate buffer containing 4% (v/v) formalin and stored in this solution prior to use in subsequent experiments.
(§5) Subdermal calcification studies were performed in rats using tissues treated and stored as described above. […] Twenty-one days following implantation, the tissues were recovered and their calcium content was measured in samples taken from each tissue.

For a further data set, the system named is bovine pericardium. The data set is described as follows: Subdermal calcification study in rats, bovine pericardium. Format: in vivo. The settings on record: Group III: TGA second method, then treated with and stored in formalin-containing solution, 21 days, average ± standard error. The procedure:
as §3, §4, §5

Where [4] appears, read: cusps cross-linked with 0.1 molar TGA in borate buffer pH 9.0, first method, subdermal in rats, 21 days.

Each structure is given as a SMILES string. Several values for one entry are separate records, joined by “and”; a condition that tells them apart may be missing. Equal entries are not always repeated. Some results are limits rather than exact numbers.

With `O=CCCCC=O` [glutaraldehyde, reference compound], in the data set with A10 cells, the “proportion of cells which appeared to be dead” value was ≥ 30%. Also, the “calcium content, average value ± standard error” value in the data set with porcine aortic cusps (cusps cross-linked with 0.6% (v/v) glutaraldehyde in 0.05 molar HEPES pH 7.4, first method, subdermal in rats, 21 days) is listed as 106.69 ± 9.81 micrograms of calcium per milligram of tissue. Also, the “calcium content of individual tissue samples” value in the data set on porcine aortic cusps (cusps cross-linked with 0.6% (v/v) glutaraldehyde in 0.05 molar HEPES pH 7.4, first method, subdermal in rats, 21 days, listed as A) was 63.28 micrograms of calcium per milligram of tissue and 72.44 micrograms of calcium per milligram of tissue and 117.67 micrograms of calcium per milligram of tissue and 131.43 micrograms of calcium per milligram of tissue and 158.70 micrograms of calcium per milligram of tissue and 140.34 micrograms of calcium per milligram of tissue and 141.91 micrograms of calcium per milligram of tissue and 94.44 micrograms of calcium per milligram of tissue and 89.60 micrograms of calcium per milligram of tissue and 87.42 micrograms of calcium per milligram of tissue.
For the molecule `C1OC1CN(CC1CO1)CC1CO1` (stereo not drawn) [TGA, triglycidyl amine], in the data set on A10 cells, the “proportion of cells which appeared to be dead” value was “substantially undetectable proportion”. Also, the “thermal shrinkage temperature (Ts)” value in data set [1] is “about 83 °C”. Moreover, the “pH of the stabilization reaction mixture” value is recorded as ~11.5 in data set [2] (first stabilization method, solution not changed, seven-day reaction period) and ≤ 8 in data set [2] (second method, reaction mixture solution replaced every 24 hours). The “Calcium (micrograms/milligram of dry tissue)” value was 21.17 ± 1.81 micrograms/milligram of dry ti in data set [3]; 18.07 ± 9.19 micrograms/milligram of dry ti in the data set on porcine aortic cusps (porcine aortic cusps, Group III: TGA second method, then treated with and stored in formalin-containing solution, subdermal in rats, 21 days, average ± standard error); 7.43 ± 3.47 micrograms/milligram of dry ti in the data set on bovine pericardium. Also, the “calcium content, average value ± standard error” value in the data set on porcine aortic cusps (D: cusps cross-linked with 0.1 molar TGA in HEPES buffer pH 7.4, first method, subdermal in rats, 21 days) is listed as 4.13 ± 2.14 micrograms of calcium per milligram of tissue; in the data set on porcine aortic cusps (setting [4]), 1.769 micrograms of calcium per milligram of tissue. For the same molecule, the “calcium content of individual tissue samples” value was 1.59 micrograms of calcium per milligram of tissue and 17.58 micrograms of calcium per milligram of tissue and 1.107 micrograms of calcium per milligram of tissue and 1.021 micrograms of calcium per milligram of tissue and 0.615 micrograms of calcium per milligram of tissue and 1.30 micrograms of calcium per milligram of tissue and 8.75 micrograms of calcium per milligram of tissue and 1.14 micrograms of calcium per milligram of tissue with porcine aortic cusps (D: cusps cross-linked with 0.1 molar TGA in HEPES buffer pH 7.4, first method, subdermal in rats, 21 days, listed as D); 1.318 micrograms of calcium per milligram of tissue and 0.811 micrograms of calcium per milligram of tissue and 1.31 micrograms of calcium per milligram of tissue and 2.13 micrograms of calcium per milligram of tissue and 1.20 micrograms of calcium per milligram of tissue and 3.85 micrograms of calcium per milligram of tissue in the data set on porcine aortic cusps (setting [4]). The “post-implantation calcification of the tissue, result in words” value in the data set with porcine aortic cusps (tissues treated by first and second stabilization methods, compared with glutaraldehyde treatment) is given as “inhibits post-implantation calcification of the tissue relative to glutaraldehyde treatment”.
